Results reported in ChEMBL document CHEMBL1140726, “Discovery and biological evaluation of 5-aryl-2-furfuramides, potent and selective blockers of the Nav1.8 sodium channel with efficacy in models of neuropathic and inflammatory pain” (J Med Chem, 2008).

What was measured:
[1] = Activity at rat dorsal root ganglion in resting state with prepulse voltage of -100 mV assessed as blockade of TTx-resistant sodium current at 0.1 uM by whole-cell patch clamp technique; type: functional
[2] = molecular target: Sodium channel protein type 3 subunit alpha (Homo sapiens) (UniProt Q9NY46); experiment: Inhibition of human Nav1.3 channel at 10 uM
Sodium channel protein type 3 subunit alpha (Homo sapiens), sequence (Q9NY46 whole entry, looked up): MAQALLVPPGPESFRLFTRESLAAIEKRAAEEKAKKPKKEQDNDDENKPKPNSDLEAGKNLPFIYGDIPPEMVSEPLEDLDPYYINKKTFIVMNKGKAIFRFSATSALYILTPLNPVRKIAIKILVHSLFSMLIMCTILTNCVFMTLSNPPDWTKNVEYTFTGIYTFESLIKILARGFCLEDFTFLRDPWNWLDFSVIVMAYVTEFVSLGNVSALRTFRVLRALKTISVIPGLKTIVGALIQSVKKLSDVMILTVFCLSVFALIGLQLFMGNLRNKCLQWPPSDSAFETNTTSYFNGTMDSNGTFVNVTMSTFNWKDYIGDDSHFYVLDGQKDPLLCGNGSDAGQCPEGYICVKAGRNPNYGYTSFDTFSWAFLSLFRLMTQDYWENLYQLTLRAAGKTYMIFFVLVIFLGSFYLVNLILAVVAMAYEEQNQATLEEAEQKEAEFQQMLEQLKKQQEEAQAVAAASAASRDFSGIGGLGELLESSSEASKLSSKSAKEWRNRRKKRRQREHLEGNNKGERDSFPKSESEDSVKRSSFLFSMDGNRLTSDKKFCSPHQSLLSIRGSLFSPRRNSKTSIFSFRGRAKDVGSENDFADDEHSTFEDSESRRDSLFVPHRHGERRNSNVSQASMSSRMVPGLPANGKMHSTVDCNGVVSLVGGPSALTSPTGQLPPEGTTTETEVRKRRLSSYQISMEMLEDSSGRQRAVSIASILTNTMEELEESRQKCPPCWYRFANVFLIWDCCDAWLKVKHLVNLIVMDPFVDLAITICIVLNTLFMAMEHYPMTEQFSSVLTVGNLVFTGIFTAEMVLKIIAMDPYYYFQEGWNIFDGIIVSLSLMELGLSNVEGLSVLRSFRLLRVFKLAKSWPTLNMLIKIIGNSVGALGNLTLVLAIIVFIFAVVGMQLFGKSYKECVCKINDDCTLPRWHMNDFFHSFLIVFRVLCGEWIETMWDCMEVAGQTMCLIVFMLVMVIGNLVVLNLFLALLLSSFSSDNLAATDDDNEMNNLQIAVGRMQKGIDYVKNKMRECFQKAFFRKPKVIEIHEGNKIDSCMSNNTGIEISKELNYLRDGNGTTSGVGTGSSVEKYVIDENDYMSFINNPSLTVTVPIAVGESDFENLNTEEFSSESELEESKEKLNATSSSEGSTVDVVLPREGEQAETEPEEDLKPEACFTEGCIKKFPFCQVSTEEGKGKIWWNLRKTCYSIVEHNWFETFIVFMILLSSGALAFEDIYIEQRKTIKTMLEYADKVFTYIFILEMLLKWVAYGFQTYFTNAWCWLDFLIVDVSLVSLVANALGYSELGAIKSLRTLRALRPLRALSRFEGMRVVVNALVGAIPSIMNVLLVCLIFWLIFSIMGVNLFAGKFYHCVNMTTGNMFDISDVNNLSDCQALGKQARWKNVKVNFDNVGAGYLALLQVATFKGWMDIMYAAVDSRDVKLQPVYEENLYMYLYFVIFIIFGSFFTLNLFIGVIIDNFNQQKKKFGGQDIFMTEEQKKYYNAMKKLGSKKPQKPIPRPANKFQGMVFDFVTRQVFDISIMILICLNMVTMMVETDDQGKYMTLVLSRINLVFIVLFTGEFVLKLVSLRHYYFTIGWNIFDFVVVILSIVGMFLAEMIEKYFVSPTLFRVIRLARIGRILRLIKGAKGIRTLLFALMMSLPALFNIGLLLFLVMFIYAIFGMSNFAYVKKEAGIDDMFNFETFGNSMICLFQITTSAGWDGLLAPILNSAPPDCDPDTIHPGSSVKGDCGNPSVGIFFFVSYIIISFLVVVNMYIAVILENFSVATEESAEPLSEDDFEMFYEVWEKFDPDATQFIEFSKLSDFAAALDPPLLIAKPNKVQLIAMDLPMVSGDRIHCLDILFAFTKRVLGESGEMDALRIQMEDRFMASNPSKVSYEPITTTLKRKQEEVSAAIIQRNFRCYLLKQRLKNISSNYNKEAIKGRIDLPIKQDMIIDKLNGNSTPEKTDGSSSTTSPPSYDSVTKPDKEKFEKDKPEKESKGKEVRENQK

[3] = molecular target: T1, Translocator protein (Homo sapiens, UniProt P30536); experiment: Binding affinity to peripheral benzodiazepine receptor
T1 sequence (P30536 whole entry): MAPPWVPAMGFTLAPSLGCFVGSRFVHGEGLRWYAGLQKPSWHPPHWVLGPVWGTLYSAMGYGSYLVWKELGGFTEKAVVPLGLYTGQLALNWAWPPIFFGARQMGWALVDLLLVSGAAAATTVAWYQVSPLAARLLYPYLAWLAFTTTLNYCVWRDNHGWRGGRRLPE

[4] = molecular target: T2, Nav1.5 (sodium channel protein type 5 subunit alpha) (Homo sapiens, UniProt Q14524); experiment: Inhibition of human Nav1.5 channel at 3 uM
[5] = molecular target: T3, Sodium channel protein type 10 subunit alpha (Homo sapiens, UniProt Q9Y5Y9); experiment: Activity at human recombinant Nav 1.8 channel expressed in HEK293 cells in resting state with prepulse voltage of -100 mV assessed as blockade of TTx-resistant sodium current at 0.01 uM; type: cell-based
Target sequence in this assay (Q9Y5Y9 whole entry, looked up): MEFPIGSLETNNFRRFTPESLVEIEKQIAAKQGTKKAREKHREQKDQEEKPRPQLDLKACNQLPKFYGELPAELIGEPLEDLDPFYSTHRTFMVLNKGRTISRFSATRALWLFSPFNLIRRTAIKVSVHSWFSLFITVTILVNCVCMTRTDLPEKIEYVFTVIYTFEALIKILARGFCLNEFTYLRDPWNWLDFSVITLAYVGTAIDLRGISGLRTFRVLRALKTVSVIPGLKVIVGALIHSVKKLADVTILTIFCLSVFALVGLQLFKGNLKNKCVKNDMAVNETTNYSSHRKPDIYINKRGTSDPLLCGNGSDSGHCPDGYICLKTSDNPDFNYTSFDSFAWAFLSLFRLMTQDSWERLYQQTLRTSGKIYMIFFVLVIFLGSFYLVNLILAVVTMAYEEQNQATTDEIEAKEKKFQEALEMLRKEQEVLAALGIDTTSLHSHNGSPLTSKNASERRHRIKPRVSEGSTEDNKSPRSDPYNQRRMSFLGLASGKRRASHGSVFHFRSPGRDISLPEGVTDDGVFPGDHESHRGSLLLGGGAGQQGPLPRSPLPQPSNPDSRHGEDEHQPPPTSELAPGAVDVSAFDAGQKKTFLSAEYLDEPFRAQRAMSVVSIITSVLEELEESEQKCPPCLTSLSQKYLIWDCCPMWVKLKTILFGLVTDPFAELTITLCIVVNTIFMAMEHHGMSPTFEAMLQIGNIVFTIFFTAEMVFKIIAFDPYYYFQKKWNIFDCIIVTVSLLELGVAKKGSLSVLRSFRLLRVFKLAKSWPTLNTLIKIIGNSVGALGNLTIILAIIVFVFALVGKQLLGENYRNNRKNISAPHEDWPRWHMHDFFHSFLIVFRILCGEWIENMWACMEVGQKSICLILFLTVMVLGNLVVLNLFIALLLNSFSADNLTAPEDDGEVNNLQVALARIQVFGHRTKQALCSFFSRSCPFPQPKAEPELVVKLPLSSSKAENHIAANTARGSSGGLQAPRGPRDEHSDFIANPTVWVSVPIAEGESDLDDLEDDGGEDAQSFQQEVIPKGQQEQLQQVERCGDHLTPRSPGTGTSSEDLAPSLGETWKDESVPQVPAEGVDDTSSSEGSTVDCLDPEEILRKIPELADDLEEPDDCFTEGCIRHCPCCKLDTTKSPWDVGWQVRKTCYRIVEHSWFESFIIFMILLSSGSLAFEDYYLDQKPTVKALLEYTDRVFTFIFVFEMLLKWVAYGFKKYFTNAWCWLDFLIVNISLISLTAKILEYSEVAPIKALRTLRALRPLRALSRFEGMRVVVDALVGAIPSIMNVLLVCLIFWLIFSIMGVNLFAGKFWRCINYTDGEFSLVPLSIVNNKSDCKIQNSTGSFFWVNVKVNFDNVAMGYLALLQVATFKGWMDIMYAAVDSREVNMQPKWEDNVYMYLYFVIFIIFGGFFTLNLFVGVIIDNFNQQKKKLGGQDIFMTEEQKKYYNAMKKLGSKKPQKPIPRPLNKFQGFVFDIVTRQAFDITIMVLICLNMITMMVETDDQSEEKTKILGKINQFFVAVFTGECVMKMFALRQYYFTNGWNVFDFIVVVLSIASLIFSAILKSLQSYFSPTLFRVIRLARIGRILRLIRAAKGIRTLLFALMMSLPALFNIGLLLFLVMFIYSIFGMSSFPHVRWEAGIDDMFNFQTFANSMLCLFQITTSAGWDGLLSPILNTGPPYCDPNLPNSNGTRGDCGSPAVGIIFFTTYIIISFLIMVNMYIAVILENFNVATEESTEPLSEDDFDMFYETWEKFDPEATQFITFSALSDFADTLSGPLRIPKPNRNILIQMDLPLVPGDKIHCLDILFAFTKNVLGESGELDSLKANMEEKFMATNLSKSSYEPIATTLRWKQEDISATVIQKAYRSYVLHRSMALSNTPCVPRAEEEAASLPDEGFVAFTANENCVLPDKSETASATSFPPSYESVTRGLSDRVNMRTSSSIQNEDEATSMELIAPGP

[6] = Activity at rat dorsal root ganglion in inactivated state with prepulse voltage of -40 mV assessed as blockade of TTx-resistant sodium current at 0.1 uM by whole-cell patch clamp technique; type: functional
[7] = molecular target: Sodium channel protein type 3 subunit alpha (Homo sapiens) (UniProt Q9NY46); experiment: Inhibition of human Nav1.3 channel at 3 uM
[8] = molecular target: Sodium channel protein type 9 subunit alpha (Homo sapiens) (UniProt Q15858); experiment: Inhibition of human Nav1.7 channel at 3 uM
[9] = Activity at rat dorsal root ganglion in resting state with prepulse voltage of -100 mV assessed as blockade of TTx-resistant sodium current at 0.3 uM by whole-cell patch clamp technique; type: functional
[10] = test system: Rattus norvegicus; experiment: Antinociceptive activity in ip dosed Sprague-Dawley rat assessed as reduction of CFA-induced thermal hyperalgesia; type: functional; set-up: Activity: scale not given: the % may be the effect or the level left
[11] = test system: Rattus norvegicus; experiment: Antinociceptive activity in ip dosed Sprague-Dawley rat assessed as attenuation of mechanical allodynia in chung model of neuropathic pain; type: functional
[12] = Activity at rat dorsal root ganglion in inactivated state with prepulse voltage of -40 mV assessed as blockade of TTx-resistant sodium current at 0.3 uM by whole-cell patch clamp technique; type: functional
[13] = molecular target: Sodium channel protein type 10 subunit alpha (Mus musculus, UniProt Q6QIY3); experiment: Inhibition of mouse recombinant Nav 1.8 channel expressed in HEK293 cells by isotopic efflux assay; type: cell-based
[14] = molecular target: T3, Sodium channel protein type 10 subunit alpha; experiment: Activity at human recombinant Nav 1.8 channel expressed in HEK293 cells in resting state with prepulse voltage of -100 mV assessed as blockade of TTx-resistant sodium current at 0.03 uM; type: cell-based
Target sequence in this assay (Q9Y5Y9 whole entry, looked up): as above

[15] = molecular target: T3, Sodium channel protein type 10 subunit alpha; experiment: Inhibition of human recombinant Nav 1.8 channel expressed in HEK293 cells at 0.01 uM; type: cell-based
Target sequence in this assay (Q9Y5Y9 whole entry, looked up): as above

[16] = molecular target: T2, Nav1.5 (sodium channel protein type 5 subunit alpha); experiment: Inhibition of human Nav1.5 channel at 10 uM
[17] = molecular target: T3, Sodium channel protein type 10 subunit alpha; experiment: Inhibition of human recombinant Nav 1.8 channel expressed in HEK293 cells; type: cell-based
Target sequence in this assay (Q9Y5Y9 whole entry): as the sequence (Q9Y5Y9 whole entry, looked up) above

[18] = test system: Rattus norvegicus; experiment: Antinociceptive activity in ip dosed Sprague-Dawley rat assessed as reduction of mechanical allodynia in Bennett model of neuropathic pain; type: functional; set-up: Activity: scale not given: the % may be the effect or the level left
[19] = molecular target: T3, Sodium channel protein type 10 subunit alpha; experiment: Activity at human recombinant Nav 1.8 channel expressed in HEK293 cells in inactivated state with prepulse voltage of -40 mV assessed as blockade of TTx-resistant sodium current at 0.01 uM; type: cell-based
Target sequence in this assay (Q9Y5Y9 whole entry, looked up): as above

[20] = Protein binding in Sprague-Dawley rat plasma; type: ADME, cell-free; settings: read-out: PPB (converted)
[21] = molecular target: T1, Translocator protein; experiment: Binding affinity to peripheral benzodiazepine receptor at 10 uM
[22] = Ratio of drug level in brain to plasma in Sprague-Dawley rat; type: ADME
[23] = molecular target: Sodium channel protein type 2 subunit alpha (Homo sapiens) (UniProt Q99250); experiment: Inhibition of human Nav1.2 channel at 10 uM
[24] = Volume of distribution at steady state in Sprague-Dawley rat; type: ADME, organism-based; settings: in vivo, read-out: Vdss
[25] = Intrinsic clearance in Sprague-Dawley rat microsomes after 1 hr; type: ADME, Liver, Microsome
[26] = Cmax in Sprague-Dawley rat at 10 mg/kg, ip; type: ADME, organism-based; set-up: dose 10 mg/kg, route intraperitoneal; settings: in vivo
[27] = Oral bioavailability in Sprague-Dawley rat; type: ADME, organism-based; settings: in vivo
[28] = Bioavailability in Sprague-Dawley rat at 10 mg/kg, ip; type: ADME, organism-based; settings: in vivo
[29] = Clearance in Sprague-Dawley rat plasma; type: ADME, organism-based
[30] = molecular target: T3, Sodium channel protein type 10 subunit alpha; experiment: Activity at human recombinant Nav 1.8 channel expressed in HEK293 cells in inactivated state with prepulse voltage of -40 mV assessed as blockade of TTx-resistant sodium current at 0.03 uM; type: cell-based
Target sequence in this assay (Q9Y5Y9 whole entry, looked up): as above

[31] = molecular target: T3, Sodium channel protein type 10 subunit alpha; experiment: Inhibition of human recombinant Nav 1.8 channel expressed in HEK293 cells at 0.03 uM; type: cell-based
Target sequence in this assay (Q9Y5Y9 whole entry, looked up): as above

[32] = molecular target: Voltage-gated inwardly rectifying potassium channel KCNH2 (Homo sapiens, UniProt Q12809); experiment: Inhibition of hERG potassium channel expressed in CHO cells by isotope efflux assay
[33] = molecular target: Sodium channel protein type 9 subunit alpha (Homo sapiens) (UniProt Q15858); experiment: Inhibition of human Nav1.7 channel at 10 uM
[34] = molecular target: Sodium channel protein type 2 subunit alpha (Homo sapiens) (UniProt Q99250); experiment: Inhibition of human Nav1.2 channel at 3 uM
[35] = molecular target: Sodium channel protein type 5 subunit alpha (Homo sapiens, UniProt Q14524); experiment: Inhibition of human Nav1.5 channel at 1 uM
[36] = Half life in Sprague-Dawley rat; type: ADME, organism-based; settings: in vivo
[37] = Rattus norvegicus, Sprague-Dawley, ip

**Q.** For `Cc1cccc(NC(=O)c2ccc(-c3ccc(C#N)cc3)o2)c1`, which inhibition at 0.1 µM [1] is on record?
**A.** 38%

**Q.** What about the inhibition [2] of the same molecule?
**A.** 58%

**Q.** What about the IC50 [3] of the same molecule?
**A.** > 2 µM

**Q.** What about the inhibition at 3 µM [4] of the same molecule?
**A.** 61%

**Q.** And the inhibition [5]?
**A.** 14%

**Q.** And the inhibition at 0.1 µM [6]?
**A.** 41%

**Q.** And the inhibition [7]?
**A.** 47%

**Q.** What about the inhibition [8] of the same molecule?
**A.** 26%

**Q.** And the inhibition at 0.3 µM [9]?
**A.** 52%

**Q.** And the Activity [10]?
**A.** 55%

**Q.** And the ED50 [10, 37]?
**A.** 98 mg/kg

**Q.** And the Activity [11]?
**A.** 86%

**Q.** And the ED50 [11, 37]?
**A.** 38 mg/kg

**Q.** What about the inhibition at 0.3 µM [12] of the same molecule?
**A.** 74%

**Q.** And the IC50 [13]?
**A.** 0.48 µM

**Q.** And the inhibition [14]?
**A.** 29%

**Q.** And the inhibition [15]?
**A.** 33%

**Q.** What about the inhibition at 10 µM [16] of the same molecule?
**A.** 74%

**Q.** And the IC50 [17]?
**A.** 0.079 µM

**Q.** And the Activity [18]?
**A.** 21%

**Q.** What about the ED50 [18, 37] of the same molecule?
**A.** > 100 mg/kg

**Q.** What about the inhibition [19] of the same molecule?
**A.** 33%

**Q.** And the fraction unbound [20]?
**A.** 0.017

**Q.** And the inhibition [21]?
**A.** > 60%

**Q.** What about the Kp [22] of the same molecule?
**A.** 0.35

**Q.** And the inhibition [23]?
**A.** 57%

**Q.** And the Vd [24]?
**A.** 1.9 L/kg

**Q.** What about the microsomal CLint [25] of the same molecule?
**A.** 260 µL/min/mg

**Q.** What about the Cmax [26] of the same molecule?
**A.** 750 ng/mL

**Q.** What about the bioavailability [27] of the same molecule?
**A.** 4%

**Q.** And the bioavailability [28]?
**A.** 36%

**Q.** And the clearance [29]?
**A.** 40 mL/min/kg

**Q.** What about the inhibition [30] of the same molecule?
**A.** 51%

**Q.** And the inhibition [31]?
**A.** 51%

**Q.** What about the IC50 [32] of the same molecule?
**A.** 5.8 µM

**Q.** And the inhibition [33]?
**A.** 54%

**Q.** What about the inhibition [34] of the same molecule?
**A.** 32%

**Q.** What about the IC50 [35] of the same molecule?
**A.** > 2 µM

**Q.** And the half-life [36]?
**A.** 1.9 h
